The values below come from patent US20090203908A1, “Activator for Peroxisome Proliferator-Activated Receptor” (NIPPON CHEMIPHAR CO., LTD., priority 2005, published 2009).

Molecules are shown by their SMILES. pEC50: −log10 of the molar value. Like-named read-outs stand apart in the source and are kept apart here.

In one assay the target is T1, hPPAR γ (LBD) (Homo sapiens, UniProt P37231).
T1 sequence (P37231 238-503 limits assumed): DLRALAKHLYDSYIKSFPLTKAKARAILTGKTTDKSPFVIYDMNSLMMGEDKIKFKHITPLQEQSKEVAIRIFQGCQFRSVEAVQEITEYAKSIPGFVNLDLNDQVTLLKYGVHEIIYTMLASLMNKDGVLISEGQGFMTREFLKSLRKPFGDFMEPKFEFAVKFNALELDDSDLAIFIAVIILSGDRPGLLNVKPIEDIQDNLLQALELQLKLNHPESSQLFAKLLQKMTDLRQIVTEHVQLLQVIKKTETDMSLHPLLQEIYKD
In words: PPAR activating effect, GAL4-hPPARγ (LBD) luciferase reporter in CV-1 cells. On the technique in general: Reporter assays use an easily measured gene product as a stand-in for the process of interest.

A further assay has as its system hPPAR α or γ or δ (LBD). In words: PPAR activating effect, overall assessment over the subtypes (GAL4-hPPAR luciferase reporter in CV-1 cells). The conditions noted are these: summary of Table 17, PPARα and PPARγ.
For the next assay, the target named is T2, hPPAR δ (LBD) (Homo sapiens, UniProt Q03181).
T2 sequence (Q03181 211-439 limits assumed): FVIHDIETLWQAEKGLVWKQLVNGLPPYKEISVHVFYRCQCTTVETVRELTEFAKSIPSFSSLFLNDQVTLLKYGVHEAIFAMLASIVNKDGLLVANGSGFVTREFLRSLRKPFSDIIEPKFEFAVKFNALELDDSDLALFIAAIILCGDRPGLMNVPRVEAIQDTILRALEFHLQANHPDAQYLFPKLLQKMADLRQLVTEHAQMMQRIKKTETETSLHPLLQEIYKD
Description: PPAR activating effect, GAL4-hPPARδ (LBD) luciferase reporter in CV-1 cells.

The target of the next assay is T3, hPPAR α (LBD) (Homo sapiens, UniProt Q07869).
T3 sequence (Q07869 239-466 limits assumed): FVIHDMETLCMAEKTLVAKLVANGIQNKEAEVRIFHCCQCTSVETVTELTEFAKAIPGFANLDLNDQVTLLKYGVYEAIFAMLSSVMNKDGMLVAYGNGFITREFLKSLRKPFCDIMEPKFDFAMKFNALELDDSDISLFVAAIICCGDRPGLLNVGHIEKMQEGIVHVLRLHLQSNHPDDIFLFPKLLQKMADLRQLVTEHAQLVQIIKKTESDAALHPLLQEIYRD
In words: PPAR activating effect, GAL4-hPPARα (LBD) luciferase reporter in CV-1 cells.

Description for hPPAR α (LBD): (§1) For determining PPAR activating effects of the compounds according to the invention were measured by the following method:
(§2) After gene transfer utilizing a lipofection reagent DMRIE-C or Lipofectamin 2000 (Invitrogen), it is incubated for 42 hours in the presence of the test compound. Then, the luciferase activity and β-GAL activity are measured on the soluble cells. The luciferase activity is calibrated by the β-GAL activity.
(§3) The PPAR activating effects of test compounds (compounds of Examples) were measured by the following method:
(§4) After gene transfer utilizing a lipofection reagent DMRIE-C or Lipofectamin 2000 (Invitrogen), it is incubated for approx. 40 hours in the presence of the test compound. Then, the luciferase activity and β-GAL activity are measured on the soluble cells. The luciferase activity is calibrated by the β-GAL activity. […] Then, EC50 was obtained.
Description for hPPAR α or γ or δ (LBD): as §1, §2, §3, §4
Description for hPPAR γ (LBD): as §1, §2, §3, §4
Description for hPPAR δ (LBD): as §1, §2, §3, §4

Consider `Cc1cc(C(=O)CCc2sc(-c3ccc(C(F)(F)F)cc3)nc2CN2CCN(c3ccc(OC(C)C)cc3)CC2)ccc1OC(C)(C)C(=O)O` [Example 16, 2-[4-[3-[4-[4-(4-Isopropyloxyphenyl)piperazin-1-ylmethyl]-2-(4-trifluoromethylphenyl)-5-thiazolyl]propionyl]-2-methylphenoxy]-2-methylpropionic Acid], for which the pEC50 is 6.54 on hPPAR γ (LBD), 5.64 at hPPAR δ (LBD) and 6.74 on hPPAR α (LBD). In addition, the “α/γ dual agonist effects (in words)” value with hPPAR α or γ or δ (LBD) is on record as “good α/γ dual agonist effects”.
Take `COc1ccc(N2CCN(Cc3nc(-c4ccc(C(F)(F)F)cc4)sc3CCC(=O)c3ccc(OC(C)(C)C(=O)O)c(C)c3)CC2)cc1` [Example 3, 2-[4-[3-[4-[4-(4-Methoxyphenyl)piperazin-1-yl-methyl]-2-(4-trifluoromethylphenyl)-5-thiazolyl]propionyl]-2-methylphenoxy]-2-methylpropionic Acid]: the pEC50 is 6.18 on hPPAR γ (LBD), 6.04 at hPPAR δ (LBD) and less than 5.00 on hPPAR α (LBD).
The like results for `CCOc1ccc(N2CCN(Cc3nc(-c4ccc(C(F)(F)F)cc4)sc3CCC(=O)c3ccc(OC(C)(C)C(=O)O)c(C)c3)CC2)cc1` [Example 13, 2-[4-[3-[4-[4-(4-Ethoxyphenyl)piperazin-1-yl-methyl]-2-(4-trifluoromethylphenyl)-5-thiazolyl]propionyl]-2-methylphenoxy]-2-methylpropionic Acid] were, in that order, 6.55, 5.96 and 6.48.
`Cc1ccc(N2CCN(Cc3nc(-c4ccc(C(F)(F)F)cc4)sc3CCC(=O)c3ccc(OC(C)(C)C(=O)O)c(C)c3)CC2)cc1` [Example 6, 2-[4-[3-[4-[4-(4-Methylphenyl)piperazin-1-yl-methyl]-2-(4-trifluoromethylphenyl)-5-thiazolyl]propionyl]-2-methylphenoxy]-2-methylpropionic Acid]: the pEC50 at hPPAR γ (LBD) is 6.31; at hPPAR δ (LBD), 5.31; on hPPAR α (LBD), 6.26.
For the compound `Cc1cc(C(=O)CCc2sc(-c3ccc(C(F)(F)F)cc3)nc2CN2CCN(c3ccc(C(F)(F)F)cc3)CC2)ccc1OC(C)(C)C(=O)O` [Example 5, 2-[4-[3-[4-[4-(4-Trifluoromethylphenyl)-piperazin-1-ylmethyl]-2-(4-trifluoromethylphenyl)-5-thiazolyl]propionyl]-2-methylphenoxy]-2-methylpropionic Acid], the pEC50 on hPPAR γ (LBD) is 5.49; at hPPAR δ (LBD), 5.28; at hPPAR α (LBD), 7.05. Moreover, the “PPARα agonist effect (in words)” value at hPPAR α (LBD) (summary of Table 17) is “strong and selective PPARα agonist effect”.
As for `COc1ccc(N2CCN(Cc3nc(-c4ccc(C(F)(F)F)cc4)sc3CCC(=O)c3ccc(OC(C)(C)C(=O)O)c(C)c3)CC2)cc1OC` [Example 12, 2-[4-[3-[4-[4-(3,4-Dimethoxyphenyl)piperazin-1-ylmethyl]-2-(4-trifluoromethylphenyl)-5-thiazolyl]propionyl]-2-methylphenoxy]-2-methylpropionic Acid], the pEC50 is 5.77 on hPPAR γ (LBD), 5.42 at hPPAR δ (LBD) and 6.03 on hPPAR α (LBD).
On the same counts, the results for `Cc1cc(C(=O)CCc2sc(-c3ccc(C(F)(F)F)cc3)nc2CN2CCN(c3ccc(OC(F)(F)F)cc3)CC2)ccc1OC(C)(C)C(=O)O` [Example 15, 2-[4-[3-[4-[4-(4-Trifluoromethoxyphenyl)piperazin-1-ylmethyl]-2-(4-trifluoromethylphenyl)-5-thiazol-yl]propionyl]-2-methylphenoxy]-2-methylpropionic Acid] are 6.12, 5.20 and 6.54.
`COc1cccc(N2CCN(Cc3nc(-c4ccc(C(F)(F)F)cc4)sc3CCC(=O)c3ccc(OC(C)(C)C(=O)O)c(C)c3)CC2)c1` [Example 4, 2-[4-[3-[4-[4-(3-Methoxyphenyl)piperazin-1-yl-methyl]-2-(4-trifluoromethylphenyl)-5-thiazolyl]propionyl]-2-methylphenoxy]-2-methylpropionic Acid]: the pEC50 on hPPAR γ (LBD) is 5.89; on hPPAR δ (LBD), 5.36; on hPPAR α (LBD) it was 6.68.
With `COc1ccc(CC2SC(=O)NC2=O)cc1C(=O)NCc1ccc(C(F)(F)F)cc1` (stereo not shown) [KRP-297, reference compound], at hPPAR δ (LBD) (read-out: PPAR activity: EC50, δ, CV-1 cells, approx. 40 hours incubation, 100% control GW-501516 10^−7 M), the pEC50 was 4.86.
For the compound `Cc1cc(C(=O)CCc2sc(-c3ccc(C(F)(F)F)cc3)nc2CN2CCN(c3ccc(C(C)C)cc3)CC2)ccc1OC(C)(C)C(=O)O` [Example 11, 2-[4-[3-[4-[4-(4-Isopropylphenyl)piperazin-1-ylmethyl]-2-(4-trifluoromethylphenyl)-5-thiazolyl]propionyl]-2-methylphenoxy]-2-methylpropionic Acid], the pEC50 at hPPAR γ (LBD) is 6.52; on hPPAR δ (LBD), 5.52; on hPPAR α (LBD), 7.04. Further, the “α/γ dual agonist effects (in words)” value in the assay on hPPAR α or γ or δ (LBD) was “good α/γ dual agonist effects”.

One may read the pEC50 as the negative decadic logarithm of the EC50, by convention in mol/L.
